According to article PMC11083148, “Structure–Activity Relationship Studies on Highly Functionalized Pyrazole Hydrazones and Amides as Antiproliferative and Antioxidant Agents” (International Journal of Molecular Sciences, 2024):

Experiments:
GM-6114 = assay: MTT assay, cytotoxicity on normal fibroblasts; assay type: cell-based; conditions: human, 48 h, 10 µM
washed platelets [1] = assay: Platelet aggregation (thrombin-induced, Born's method); assay type: cell-based; conditions: Homo sapiens, 0.1 U/mL thrombin, mean ± SD, read-out: IC50 Aggregation inhibition
Protocol: (§1) The antioxidant properties of acylhydrazones 10–13 and pyrazolyl amides 14–22 were tested by evaluating their inhibition of platelet aggregation and ROS production (Figure 3, Table S1). In fact, human platelets could represent a fast and low-cost biological model to screen compounds as anticancer, anti-inflammatory, and antiaggregating agents. Moreover, ROS production inhibition, related to human platelet aggregation, could provide a good indication of the anti-inflammatory and antioxidant properties of the newly synthesized compounds [47, 50, 51, 52]. N-acetylcysteine (NAC) and acetyl salicylic acid (ASA) were used as reference drugs for antioxidant and antiaggregant activities, respectively.
(§2) Freshly drawn venous blood from healthy volunteers from “Centro Trasfusionale” (IRCCS Policlinico San Martino, Genoa, Italy) was collected into a 130 mM aqueous trisodium citrate anticoagulant solution (9:1). The donors claimed to not have taken drugs known to interfere with platelet function during the two weeks prior to blood collection and gave their informed consent. Whole blood was centrifuged at 100× g for 20 min to afford platelet-rich plasma that was then spun at 1100× g for 15 min. The obtained pellet was washed once with a pH 5.2 ACD solution (75 mM trisodium citrate, 42 mM citric acid, and 136 mM glucose), centrifuged at 1100× g for 15 min, and then re-suspended in pH 7.4 Hepes buffer (145 mM NaCl, 5 mM KCl, 1 mM MgSO4, 10 mM glucose, and 10 mM HEPES).
Thrombin was purchased from Sigma-Aldrich/Merck Millipore. A DMSO solution of compounds 10–22 was diluted in saline immediately before each experiment and added to the washed platelets (3.0 × 10^8/mL) at 37 °C. After 3 min, 0.1 U/mL thrombin was added, and platelet aggregation was quantified according to Born’s method using a Bio-Data Aggregometer (Bio-Data Corporation, Horsham, PA, USA). The IC50 values were calculated as detailed above.

Hep-G2 = assay: MTT assay, antiproliferative activity; assay type: cell-based; conditions: Homo sapiens, HepG2, 48h
Protocol: (§3) Pyrazole acylhydrazones 10–13 and amides 14–22 were tested by MTT assay to evaluate their antiproliferative and cytotoxicity properties against a panel of eight tumor cell lines and normal fibroblasts.
(§4) All reagents were purchased from EuroClone, Milan, Italy). The following cell lines were used for MTT assays: SKOV-3 (ovarian adenocarcinoma, ATCC, Manassas, VA, USA); MCF-7 (breast adenocarcinoma, Biologic Bank and Cell Factory, IRCCS Policlinico San Martino, Genoa, Italy); Hep-G2 (hepatocellular carcinoma, ATCC, Manassas, VA, USA); SK-MEL28 (skin melanoma, Biologic Bank and Cell Factory, IRCCS Policlinico San Martino, Genoa, Italy), GM-6114 (embryonic human fibroblast, ATCC, Manassas, VA, USA); MDA-MB231 (breast adenocarcinoma, Biologic Bank and Cell Factory, IRCCS Policlinico San Martino, Genoa, Italy); HeLa (cervical adenocarcinoma, Biologic Bank and Cell Factory, IRCCS Policlinico San Martino, Genoa, Italy); SK-BR3 (breast andenocarcinoma, Biologic Bank and Cell Factory, IRCCS Policlinico San Martino, Genoa, Italy); A549 (lung carcinoma, Biologic Bank and Cell Factory, IRCCS Policlinico San Martino, Genoa, Italy); HUVEC (Human Umbilical Vein Endothelial Cells, ATCC, Manassas, VA, USA). All cell lines were grown in their medium with 10% FBS, 2 mM Glutamine, and 1% penstrep and incubated at 37 °C in 5% CO2 in a humidified environment. The cell lines were plated in 96-well plates at an adequate number to reach 80–90% confluence at the end of the assay. 16 h after cell plating, a 10 mM DMSO stock solution of the compounds was diluted in growth medium and added at a final working concentration of 10 μM. After 48h of incubation, a 2 mg/mL PBS solution of MTT (3-(4,5-dimethyl-2-thiazolyl)-2,5-diphenyl-2H-tetrazolium bromide) was added (30 μL/well). After 4h, the supernatant was removed, and the Formazan precipitates were dissolved in DMSO (100 μL/well). The 96-well plates were incubated for 20 min, and absorbance was measured at 570 nm using a plate reader. The results are expressed as a percentage ratio over control samples (100%) in which the cells were incubated with the same amount of DMSO but without compounds. Each value is the mean of three independent experiments run in six replicates.

A549 = assay: MTT assay, antiproliferative activity; assay type: cell-based; conditions: Homo sapiens, 48h, read-out: Mean Growth Percentage
Protocol: as §3, §4

SK-BR3 = assay: MTT assay, antiproliferative activity; assay type: cell-based; conditions: Homo sapiens, SK-BR-3, 48h
Protocol: as §3, §4

MDA-MB231 = assay: MTT assay, antiproliferative activity; assay type: cell-based; conditions: Homo sapiens, MDA-MB-231, 48h
Protocol: as §3, §4

MCF7 = assay: MTT assay, antiproliferative activity; assay type: cell-based; conditions: Homo sapiens, 10 µM, 48h
Protocol: as §3, §4
(§5) Each IC50 value is the mean of three independent experiments run in duplicate.

HeLa = assay: MTT assay, antiproliferative activity; assay type: cell-based; conditions: Homo sapiens, 10 µM, 48h, read-out: Mean Growth Percentage
Protocol: as §3, §4, §5

SKOV3 = assay: MTT assay, antiproliferative activity; assay type: cell-based; conditions: Homo sapiens, SK-OV-3, 10 µM, 48h
Protocol: as §3, §4, §5

SKMEL28 = assay: MTT assay, antiproliferative activity; assay type: cell-based; conditions: Homo sapiens, SK-MEL-28, 10 µM, 48h
Protocol: as §3, §4, §5

washed platelets [2] = assay: ROS assay in platelets (DCFH-DA, thrombin-stimulated); assay type: cell-based, human; conditions: Homo sapiens, Platelet, 0.1 U/mL thrombin, mean ± SD, read-out: IC50 ROS production inhibition
Protocol: as §1, §2
2′,7′-Dichlorofluorescein diacetate (DCFH-DA) and thrombin were purchased from Sigma-Aldrich/Merck Millipore. DMSO solutions of 10–22 were diluted in saline immediately before each experiment. ROS production was quantified by DCFH-DA, a ROS-sensitive probe that yields, upon oxidation, the fluorescent adduct DCF that is trapped inside the cells. Briefly, washed platelets (1.0 × 10^8/mL), pre-incubated with saline solutions of 10–22 for 15 min at 37 °C, were stimulated by 0.1 U/mL thrombin. Incubation was stopped by cooling samples in an ice bath, and then samples were immediately analyzed in a Merck Millipore Bioscience Guava easyCyte flow cytometer (Merk Millipore, Burlington, MA, USA). The reported IC50 values represent the molar concentration of the compounds able to inhibit 50% of the maximal aggregation induced by the agonist and are calculated as the percentage inhibition of the maximal aggregation measured in the presence of the agent compared with the measure in a control sample containing saline, carried out under the same conditions. The IC50 values were extrapolated from nonlinear regression analysis of concentration–response curves (three points) using MS Excel software (Microsoft 365 suite). Each IC50 value is the mean of six independent experiments.

| IC50 (washed platelets [1]) | IC50 (washed platelets [2]) | melting point | SMILES | Mean Growth Percentage (GM-6114) | Mean growth percentage at 10 µM (Hep-G2) | activity at 10 µM (A549) | Mean growth percentage at 10 µM (SK-BR3) | Mean growth percentage at 10 µM (MDA-MB231) | mean growth percentage (cell growth remaining vs control) at 10 µM (MCF7) | activity at 10 µM (HeLa) | Mean growth percentage at 10 µM (SKOV3) | Mean growth percentage at 10 µM (SKMEL28) |
| --- | --- | --- | --- | --- | --- | --- | --- | --- | --- | --- | --- | --- |
| 909 ± 87 µM | 433 ± 32 µM | 158 to 159 °C | COc1ccc(/C=N/NC(=O)c2c(Nc3ccccc3)nn(CC(O)c3ccccc3)c2N)cc1OC (stereo not drawn) [13b, (E)-5-amino-N′-(3,4-dimethoxybenzylidene)-1-(2-hydroxy-2-phenylethyl)-3-(phenylamino)-1H-pyrazole-4-carbohydrazide] | 106.86% | 106% | 104% | 92.2% | 92.1% | 101% | 98.8% | 114% | 95.7% |
| 313 ± 29 µM | 209 ± 15 µM | 144 to 145 °C | COc1ccc(/C=N/NC(=O)c2c(Nc3ccccc3)nn(CC(O)c3ccccc3)c2N)cc1Oc1ccccc1 (stereo not drawn) [13c, (E)-5-amino-1-(2-hydroxy-2-phenylethyl)-N′-(4-methoxy-3-phenoxybenzylidene)-3-(phenylamino)-1H-pyrazole-4-carbohydrazide] | 99.14% | 125% | 94.4% | 87.5% | 104% | 99.8% | 97.9% | 129% | 104% |

The remaining lines, values behind:

| SMILES | IC50 (washed platelets [1]) | IC50 (washed platelets [2]) | melting point | Mean Growth Percentage (GM-6114) | Mean growth percentage at 10 µM (Hep-G2) | activity at 10 µM (A549) | Mean growth percentage at 10 µM (SK-BR3) | Mean growth percentage at 10 µM (MDA-MB231) | mean growth percentage (cell growth remaining vs control) at 10 µM (MCF7) | activity at 10 µM (HeLa) | Mean growth percentage at 10 µM (SKOV3) | Mean growth percentage at 10 µM (SKMEL28) |
| --- | --- | --- | --- | --- | --- | --- | --- | --- | --- | --- | --- | --- |
| CCOC(=O)c1c(NC(=O)c2ccc(OC)cc2)n[nH]c1Nc1ccccc1 [compound 15, Ethyl 3-(4-methoxybenzamido)-5-(phenylamino)-1H-pyrazole-4-carboxylate] | 250 ± 19 µM | 323 ± 14 µM | 155 to 157 °C | 68.40% | 85.5% | 67.9% | 99.8% | 130% | 65.9% | 105% | 88.4% | 71.7% |
| CCOC(=O)c1c(NC(=O)c2ccc(OC)c(OC)c2)n[nH]c1Nc1ccccc1 [compound 16, Ethyl 3-(3,4-dimethoxybenzamido)-5-(phenylamino)-1H-pyrazole-4-carboxylate] | 292 ± 28 µM | 310 ± 24 µM | 143 to 145 °C | 53.68% | 49.1% | 52.6% | 82.5% | 96% | 62.4% | 57.6% | 66.9% | 54% |
| CCOC(=O)c1c(NC(=O)c2ccc(Cl)cc2)nn(C)c1Nc1ccccc1 [compound 18, Ethyl 3-(4-chlorobenzamido)-1-methyl-5-(phenylamino)-1H-pyrazole-4-carboxylate] | 268 ± 25 µM | 273 ± 17 µM | 158 to 161 °C | 72.99% | 78.5% | 69.6% | 80.9% | 141% | 63.5% | 91.5% | 96.9% | 68.4% |
| CCOC(=O)c1c(NC(=O)c2ccc(OC)cc2)nn(C)c1Nc1ccccc1 [compound 19, Ethyl 3-(4-Methoxybenzamido)-1-methyl-5-(phenylamino)-1H-pyrazole-4-carboxylate] | 294 ± 26 µM | 293 ± 18 µM | 143 to 145 °C | 66.69% | 105% | 92.9% | 103% | 136% | 95.2% | 124% | 97.3% | 85.2% |
| CCOC(=O)c1c(NC(=O)c2c(OC)cccc2OC)nn(C)c1Nc1ccccc1 [compound 20, Ethyl 3-(2,6-dimethoxybenzamido)-1-methyl-5-(phenylamino)-1H-pyrazole-4-carboxylate] | 301 ± 24 µM | 289 ± 27 µM | 158 to 160 °C | 64.71% | 108% | 70.8% | 106% | 124% | 92.1% | 111% | 84.4% | 83.6% |
| CCOC(=O)c1c(NC(=O)c2ccc(OC)c(OC)c2)nn(C)c1Nc1ccccc1 [compound 21, Ethyl 3-(3,4-dimethoxybenzamido)-1-methyl-5-(phenylamino)-1H-pyrazole-4-carboxylate] | 278 ± 27 µM | 262 ± 13 µM | 186 to 187 °C | 85.88% | 97.9% | 112% | 107% | 149% | 90.3% | 108% | 90.2% | 84.6% |
